We go through seven compounds from patent publication EP0586525B1, “CARBOXAMIDO-(1,2N)-CARBOCYCLIC-2-AMINOTETRALIN DERIVATIVES” (priority 1991, dated 1992).

Series [1] addresses T1, 5-hydroxytryptamine (5-HT1A) receptor (Bos taurus, UniProt F6Q2H9).
T1 construct: from tissue; host or cells: bovine brain homogenate
T1 sequence (F6Q2H9 1-422): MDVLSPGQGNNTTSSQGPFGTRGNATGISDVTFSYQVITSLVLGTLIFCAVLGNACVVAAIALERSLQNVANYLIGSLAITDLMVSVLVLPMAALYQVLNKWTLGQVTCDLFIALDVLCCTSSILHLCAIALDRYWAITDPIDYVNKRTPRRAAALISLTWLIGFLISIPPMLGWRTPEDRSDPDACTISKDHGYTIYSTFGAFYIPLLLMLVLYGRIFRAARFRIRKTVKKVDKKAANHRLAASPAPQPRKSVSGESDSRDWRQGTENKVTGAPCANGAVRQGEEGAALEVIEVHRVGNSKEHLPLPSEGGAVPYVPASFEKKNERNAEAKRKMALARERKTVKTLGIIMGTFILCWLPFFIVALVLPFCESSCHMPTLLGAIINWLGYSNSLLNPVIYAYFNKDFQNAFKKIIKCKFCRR
Put plainly: Inhibition of 8-OH-DPAT binding in a bovine brain homogenate. To be noted: read-out: Binding at the 5-HT1A receptor site, IC50. The source says:
Binding: Inhibition of 8-OH-DPAT binding in a bovine brain homogenate. Potency is given as nM dose required to inhibit 50% of DPAT binding (IC50). This test measures ability to bind to 5-hydroxytryptamine (5-HT1A) receptor.

Series [2] relates to spontaneous sympathetic activity. The experiment in a line: Sympathetic nerve discharge (SND) in chloralose anesthetized cats. In kind it is in vivo. As to conditions: Felis catus, iv, dose range 0.001-1.0 mg/kg, read-out: Sympathetic nerve discharge, ED50 dose which inhibits spontaneous sympathetic activity. On the procedure: Sympathetic Nerve Discharge (SND): The i.v. mg/kg dose causing a 50% depression in SND in chloralose anesthetized cats and the maximum inhibition of sympathetic activity observed in the dose range tested (0.001-1.0 mg/kg i.v.).

In series [3] the test system is dorsal raphe 5-HT cell firing. The experiment in a line: 5-HT cell firing in chloral hydrate anesthetized rats. To be noted: Rattus norvegicus, iv, read-out: Depression of 5-HT cell firing, ED50. In kind it is in vivo. The source says: 5-HT Cell Firing: The i.v. mg/kg dose causing a 50% depression in the firing of dorsal raphe 5-HT cell firing in chloral hydrate anesthetized rats.

A further series can be described thus: Mouse hypothermia. In kind it is in vivo. To be noted: dose depressing temperature by 2°C or more in two of four mice. On the procedure:
Hypothermia: Starting with a dose of 30 mg/kg, four mice are injected subcutaneously with test compound. Twenty minutes later, the number of animals whose body temperature has decreased by 2°C. or more are counted. If all four animals reach criteria, the drug is considered "active", and subsequent readings are taken at 60 and 120 minutes after drug. The time for last statistically significant drug affect on mean body temperature is indicated in minutes. […] Active compounds are retested using oral administration. Potency is given as mg/kg ED50 (dose required to depress temperature in two of four mice) as measured by Spearman-Karber statistics.

Series [4] is described as follows: Pharmacokinetics following constant infusion (steady state clearance). As to conditions: plasma, iv; after 12 hour infusion (300 µg/hour), anesthetized rat; read-out: In vivo steady state clearance. The method, then:
Pharmacokinetics Following Constant Infusion: Clearance rate (ml/min/kg) was determined following a 12 hour infusion (300 µg/hour) of compound in the anesthetized rat. Disappearance of parent compound from plasma was measured at multiple time points following cessation of the infusion using HPLC methodology.

A short description of series [5]: Blood pressure at the SND ED50 dose (BP SND/MAX). To be noted: at the dose which inhibited sympathetic activity by 50%, i.v., chloralose anesthetized cats. In kind it is in vivo. On the procedure:
BP SND/MAX: The blood pressure of the chloralose anesthetized cats in percent control at the dose causing 50% depression in SND and the maximum reduction in blood pressure as percent of the control blood pressure in the same animals observed in the dose range tested (0.001-1.0 mg/kg i.v.).

Series [6] in a line: Oral plasma bioavailability. To be noted: rat, 6 mg/kg, conscious rats. In kind it is in vivo. On the procedure: Oral Bioavailability: Comparison of the disappearance of compound from plasma following oral (6 mg/kg) and intravenous (2 mg/kg) administration in conscious rats. Parent compound in plasma was measured at multiple time points following administration using HPLC methodology. Bioavailability is expressed as a percentage of the drug in plasma following oral administration compared to that following intravenous administration.

Another series deals with rat hepatocytes. Put plainly: In vitro rat hepatocyte intrinsic clearance. It is filed as in vitro ADME. As to conditions: for In vitro hepatocyte assay clearance: 2, 5 and 15 µg/ml, 60 minute incubation at 37°C, rat hepatocytes 5.0 million cells/ml; for relative metabolic stability (rel. stab.): relative to cis-(±)2,3,3a,4,5,9b-hexahydro-9-carboxamido-3-(n-propyl)-1H-benz[e]indole, rat hepatocytes. The method, then: Aliquots of each incubate were withdrawn at preset times during the incubation and analyzed for parent compound using HPLC methodology. Intrinsic clearance is expressed as ml/min/5 million cells and metabolic stability relative to cis-(+)2,3,3a,4,5,9b-hexahydro-9-carboxamide-3-(n-propyl)-1H-benz[e]indole is determined.

The conditions of series [7]: rat, in vivo; cited from earlier work.
The mark [8] stands for this setting: sc, subcutaneous (s.c.) administration.

For `CCCN1CCC2c3c(cccc3C(N)=O)CCC21` (single isomer, unassigned) [Compound 3, cis-(+)2,3,3a,4,5,9b-hexahydro-9-carboxamido-3-(n-propyl)-1H-benz[e]indole], the IC50 – broadly, the point on the concentration scale where inhibition reaches its midpoint – in [1] was determined as 533 nM. In addition, the values for the ED50 in series [2] and in [3] were above 1 mg/kg and above 0.3 mg/kg, respectively.
Consider `CCCN1CCCC2c3c(cccc3C(N)=O)CCC21` (racemic) [Compound 4, trans-(±)1,2,3,4,4a,5,6,10b-octahydro-10-carboxamido-4-(n-propyl)-benzo[f]quinoline], for which the results for the ED50 in the series “Mouse hypothermia” (oral (p.o.) administration) and in the series “Mouse hypothermia” (setting [8]) were 4.1 mg/kg and 0.23 mg/kg, respectively. The half-maximal inhibitory concentration (IC50) in [1] stood at 3.7 nM.
In the case of `CCCN1CCCC2c3c(cccc3C(N)=O)CCC21` (single isomer, unassigned) [Compound 5, trans-(-)1,2,3,4,4a,5,6,10b-octahydro-10-carboxamido-4-(n-propyl)-benzo[f]quinoline], the clearance (commonly the volume of plasma or blood freed of the substance per unit of time) in [4] is 43 mL/min/kg. Also, the “Percent of control arterial blood pressure” value (from here on “Percent”) in [5] turned out to be 85%. Further, the bioavailability (as a rule, the share of a dose that reaches the circulation, judged against a reference dose that is usually intravenous) in [6] (study not given, oral 6 mg/kg vs i.v. 2 mg/kg) is 86%. Also, the “In vitro hepatocyte assay clearance” value in the series with rat hepatocytes is on record as “.012 ml/min/5 million cells”. Moreover, the “relative metabolic stability (rel. stab.)” value (from here on “relative metabolic stability”) in the series with rat hepatocytes is listed as 3.59. In addition, the results for the ED50 (in “Mouse hypothermia” (setting [8]); in series [2]; in [3]) were 1.73 mg/kg, 0.15 mg/kg and above 0.1 mg/kg, respectively. Moreover, in series [1], the IC50 was found to be 1.5 nM.
`CCCN1CC[C@H]2c3c(cccc3C(N)=O)CC[C@H]21` (racemic) [Compound 1, cis-(±)2,3,3a,4,5,9b-hexahydro-9-carboxamido-3-(n-propyl)-1H-benz[e]indole]: the clearance in series [4] was 58 mL/min/kg. In addition, the “Percent” value in series [5] was 82%. Moreover, the bioavailability in series [6] (Study 1, oral 6 mg/kg vs i.v. 2 mg/kg) was determined as 59%; in series [6] (Study 2, samples taken for 24 hours after administration, oral 6 mg/kg vs i.v. 2 mg/kg), 70%. Also, the “In vitro hepatocyte assay clearance” value in the series on rat hepatocytes is reported as “.013 ml/min/5 million cells”. Also, the “relative metabolic stability” value with rat hepatocytes came to 1.0. The median effective dose (ED50) (commonly the midpoint of the dose-response relation) worked out at 7.3 mg/kg in the series “Mouse hypothermia” (oral (p.o.) administration), 0.97 mg/kg in the series “Mouse hypothermia” (setting [8]), 0.037 mg/kg in series [2] and 0.002 mg/kg in series [3]. Also, the concentration for half-maximal inhibition (IC50) in series [1] was determined as 5.2 nM.
As for `CCCN1CC[C@H]2c3c(cccc3C(N)=O)CC[C@H]21` (single isomer, unassigned) [Compound 2, cis-(-)2,3,3a,4,5,9b-hexahydro-9-carboxamido-3-(n-propyl)-1H-benz[e]indole], the “Percent” value in series [5] turned out to be 84%. Further, the half-inhibitory concentration (IC50) in [1] came out at 10.2 nM. Further, the values for the 50% effective dose (ED50) in series [2] and in series [3] were 0.019 mg/kg and 0.006 mg/kg, respectively.
On to `CCCN1CCC[C@H]2c3c(cccc3C(N)=O)CC[C@@H]21` (single isomer, unassigned) [Compound 6, trans-(+)1,2,3,4,4a,5,6,10b-octahydro-10-carboxamido-4-(n-propyl)-benzo[f]quinoline], for which, in the series with rat hepatocytes, the “relative metabolic stability” value turned out to be 1.05.
For the compound `CCCN(CCC)C1CCc2cccc(O)c2C1` (centres unmarked) [8-OH DPAT], the plasma oral bioavailability in [7] is reported as below 5%.
